From patent publication US20250152585A1, “PHARMACEUTICAL COMPOUND” (Duke Street Bio Limited, priority 2022, published 2025)
Read-outs that look alike come from different tables or passages of the source.

How the values were obtained:
[1] = target: T1, N-terminally FLAG-tagged PARP2 (amino acids 1-583) (Homo sapiens, UniProt Q9UGN5); experiment: PARP2 probe displacement HTRF assay; format: binding; details: binned Kd
T1 construct: N-terminally FLAG-tagged PARP2 (amino acids 1-583)
Method: Data analysis was performed identical as for PARP1.

PARP1 = target: T2, PARP1 (Homo sapiens, UniProt P09874); experiment: NanoBRET cellular target occupancy assay, PARP1; format: cell-based; details: for Kd: HEK293 cells transiently transfected with PARP1-NanoLuc fusion, tracer 11 nM, 2 hours at 37° C., Kd by Cheng-Prussoff; for Selectivity: NanoBRET, PARP1 over PARP2, Kd (PARP2)/Kd (PARP1)
T2 construct: host or cells: HEK293

PARP2 = target: T3, PARP2 (Homo sapiens, UniProt Q9UGN5); experiment: NanoBRET cellular target occupancy assay, PARP2; format: cell-based; details: HEK293 cells transiently transfected with PARP2-NanoLuc fusion; tracer 2 nM; 2 hours at 37° C.; Kd by Cheng-Prussoff
T3 construct: host or cells: HEK293
Text: NanoBRET Cellular Target Occupancy Assay

[2] = target: T4, full length N-terminally FLAG-tagged PARP1 (Homo sapiens, UniProt P09874); experiment: PARP1 probe displacement HTRF assay; details: for Kd: binned Kd; for Selectivity: PARP1 over PARP2, ratio Kd (PARP2)/Kd (PARP1)
[3] = target: T4, full length N-terminally FLAG-tagged PARP1; experiment: PARP1 biochemical DELFIA assay (auto-PARylation); parameters: recombinant full length human N-terminally FLAG-tagged PARP1
[4] = PARP1 HTRF, PARP1 probe displacement HTRF
[5] = binned IC50, PARP1 biochemical DELFIA assay
[6] = PARP1 HTRF, probe displacement HTRF
[7] = binned IC50, biochemical auto-PARylation assay
[8] = read-out: PARP1 HTRF, probe displacement HTRF
[9] = read-out: PARP1 HTRF, PARP1 probe displacement HTRF

T4 sequence (P09874 whole entry): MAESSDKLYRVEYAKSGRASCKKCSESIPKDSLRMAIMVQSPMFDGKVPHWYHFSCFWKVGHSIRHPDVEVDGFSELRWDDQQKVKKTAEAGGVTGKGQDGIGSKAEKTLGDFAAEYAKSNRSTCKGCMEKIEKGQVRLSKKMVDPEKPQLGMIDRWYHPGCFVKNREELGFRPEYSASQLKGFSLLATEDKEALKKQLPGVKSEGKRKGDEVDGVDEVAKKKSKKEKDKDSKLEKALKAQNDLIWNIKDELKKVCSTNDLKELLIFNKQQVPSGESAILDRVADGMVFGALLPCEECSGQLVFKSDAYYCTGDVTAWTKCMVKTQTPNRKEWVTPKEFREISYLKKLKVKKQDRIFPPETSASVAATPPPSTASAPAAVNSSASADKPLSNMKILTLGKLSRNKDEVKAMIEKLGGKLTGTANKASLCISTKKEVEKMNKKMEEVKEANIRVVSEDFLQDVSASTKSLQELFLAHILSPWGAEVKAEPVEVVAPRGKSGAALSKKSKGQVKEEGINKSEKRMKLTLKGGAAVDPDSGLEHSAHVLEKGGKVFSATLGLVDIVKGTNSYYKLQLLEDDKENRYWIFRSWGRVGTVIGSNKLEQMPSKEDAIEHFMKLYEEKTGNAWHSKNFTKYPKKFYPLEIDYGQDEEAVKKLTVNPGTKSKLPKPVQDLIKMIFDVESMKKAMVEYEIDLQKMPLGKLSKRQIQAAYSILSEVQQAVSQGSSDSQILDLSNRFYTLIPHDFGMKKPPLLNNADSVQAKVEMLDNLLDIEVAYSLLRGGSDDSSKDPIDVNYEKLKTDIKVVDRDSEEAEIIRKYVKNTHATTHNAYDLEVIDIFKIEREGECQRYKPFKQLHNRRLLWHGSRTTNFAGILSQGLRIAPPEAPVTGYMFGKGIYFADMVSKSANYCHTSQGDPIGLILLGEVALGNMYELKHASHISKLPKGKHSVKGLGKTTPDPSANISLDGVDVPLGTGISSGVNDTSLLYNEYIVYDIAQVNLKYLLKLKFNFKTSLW
T2 sequence (P09874 whole entry, the tested form may be a part): as the sequence (P09874 whole entry) above
T3 sequence (Q9UGN5 whole entry, the tested form may be a part): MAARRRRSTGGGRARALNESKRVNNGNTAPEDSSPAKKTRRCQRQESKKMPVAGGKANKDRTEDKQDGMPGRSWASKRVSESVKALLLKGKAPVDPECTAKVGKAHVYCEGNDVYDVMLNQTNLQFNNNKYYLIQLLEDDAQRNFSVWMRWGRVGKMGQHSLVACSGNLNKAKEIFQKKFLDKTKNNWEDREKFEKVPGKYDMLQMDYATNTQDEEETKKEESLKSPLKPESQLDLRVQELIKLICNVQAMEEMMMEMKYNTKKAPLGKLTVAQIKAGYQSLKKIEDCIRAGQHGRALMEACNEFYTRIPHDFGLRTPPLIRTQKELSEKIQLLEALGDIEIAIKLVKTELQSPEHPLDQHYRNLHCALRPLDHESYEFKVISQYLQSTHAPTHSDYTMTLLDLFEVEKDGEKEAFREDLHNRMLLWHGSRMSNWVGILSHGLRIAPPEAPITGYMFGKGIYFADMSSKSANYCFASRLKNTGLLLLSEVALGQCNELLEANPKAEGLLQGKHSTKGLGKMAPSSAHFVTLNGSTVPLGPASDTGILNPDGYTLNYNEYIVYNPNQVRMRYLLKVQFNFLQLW
T1 sequence (Q9UGN5 whole entry, the tested form may be a part): as above

| SMILES | Kd ([1]; PARP2 probe displacement HTRF) [nM] | Kd (PARP1) [nM] | Selectivity (PARP1) | Kd (PARP2) [nM] | Kd [2, 4] [nM] | Selectivity ([2]; probe displacement HTRF) | IC50 [3, 5] [nM] | Kd ([1]; probe displacement HTRF) [nM] | Kd [2, 6] [nM] | IC50 [3, 7] [nM] | Kd [2, 8] [nM] | Kd [2, 9] [nM] |
| --- | --- | --- | --- | --- | --- | --- | --- | --- | --- | --- | --- | --- |
| CCc1ccc(C2CCN(C3CCN(c4ccc(C(=O)NC)nc4F)CC3)C2)[nH]c1=O (single isomer, unassigned) [Compound 151a, 5-(4-(3-(5-ethyl-6-oxo-1,6-dihydropyridin-2-yl)pyrrolidin-1-yl)piperidin-1-yl)-6-fluoro-N-methylpicolinamide] | 100 to 1000 | < 10 | +++ (+++ indicate a value of at least 100) | > 10000 | < 10 | +++ (+++ indicate a value of at least 100) | < 10 | – | – | – | – | – |
| CNC(=O)c1ccc(N2CCC(N3CC4(c5nc6c(c(=O)[nH]5)CCCN6)CC3C4)CC2)cn1 [Compound 312] | – | 100 to 1000 | ++ (++ indicates a value of 50 to less than 100) | 1000 to 10000 | – | +++ (+++ indicate a value of at least 100) | – | 100 to 1000 | < 10 | < 10 | – | – |
| N#Cc1ccc(N2CCC(N3CCC(c4cc5cccc(F)c5c(=O)[nH]4)C3)CC2)cc1 (single isomer, unassigned) [Compound 314b] | – | < 10 | +++ (+++ indicate a value of at least 100) | 100 to 1000 | – | +++ (+++ indicate a value of at least 100) | – | 100 to 1000 | – | < 10 | < 10 | – |
| CNC(=O)c1ccc(N2CCC(N3CCC(c4nc5ccccc5c(=O)[nH]4)C3)CC2)c(F)n1 (racemic) [Compound 157rac] | 1000 to 10000 | < 10 | +++ (+++ indicate a value of at least 100) | > 10000 | – | +++ (+++ indicate a value of at least 100) | < 10 | – | – | – | – | < 10 |
| CNC(=O)c1ccc(N2CCC(N3CC4(c5nc6c(c(=O)[nH]5)CCCN6C)CC3C4)CC2)cn1 [Compound 330] | – | 10 to 100 | + (+ indicates a value of 10 to less than 50) | 100 to 1000 | – | + (+ indicates a value of 10 to less than 50) | – | 10 to 100 | < 10 | < 10 | – | – |
| CNC(=O)c1ccc(N2CCC(N3CCC(c4cc5c(c(=O)[nH]4)CCCC5)C3)CC2)c(F)n1 (single isomer, unassigned) [Compound 337b, 6-fluoro-N-methyl-5-(4-(3-(1-oxo-1,2,5,6,7,8-hexahydroisoquinolin-3-yl)pyrrolidin-1-yl)piperidin-1-yl)picolinamide] | – | – | – | 100 to 1000 | – | +++ (+++ indicate a value of at least 100) | – | – | – | < 10 | < 10 | – |
| CNC(=O)c1ccc(N2CCC(N3CCC(c4cc5c(F)cncc5c(=O)[nH]4)C3)CC2)c(F)n1 (single isomer, unassigned) [Compound 343a, 6-fluoro-5-(4-(3-(5-fluoro-1-oxo-1,2-dihydro-2,7-naphthyridin-3-yl)pyrrolidin-1-yl)piperidin-1-yl)-N-methylpicolinamide] | – | – | – | 1000 to 10000 | – | – | – | 100 to 1000 | – | – | – | – |
| O=c1[nH]c(CC2CCCN(C3CCC(F)(F)CC3)C2)nc2ccccc12 (single isomer, unassigned) [Compound 11b] | 1000 to 10000 | – | – | – | – | − (− indicates a value of less than 10) | 100 to 1000 | – | – | – | – | 100 to 1000 |
| COCCNC(=O)c1ccc(N2CCC(N3CCCC(c4nc5ccccc5c(=O)[nH]4)C3)CC2)cn1 (single isomer, unassigned) [Compound 116a] | > 10000 | – | – | – | – | +++ (+++ indicate a value of at least 100) | 10 to 100 | – | – | – | – | 10 to 100 |
| CNC(=O)c1ccc(N2CCC(N3CCC(c4nc5onc(C(F)(F)F)c5c(=O)[nH]4)C3)CC2)cn1 (single isomer, unassigned) [Compound 176a] | > 10000 | – | – | – | – | + (+ indicates a value of 10 to less than 50) | 100 to 1000 | – | – | – | – | 100 to 1000 |
| CNC(=O)c1ccc(N2CCC(N3CCC(c4nc5ccc(F)cc5c(=O)[nH]4)C3)CC2)cn1 (single isomer, unassigned) [Compound 64a] | 100 to 1000 | – | – | – | – | + (+ indicates a value of 10 to less than 50) | < 10 | – | – | – | – | < 10 |
| CC(=O)NC(=O)c1ccc(N2CCC(N3CCC(c4cc5ccccc5c(=O)[nH]4)C3)CC2)cn1 (single isomer, unassigned) [Compound 333a] | – | – | – | – | – | +++ (+++ indicate a value of at least 100) | – | 100 to 1000 | – | < 10 | < 10 | – |
| CNC(=O)c1ccc(N2CCC(N3CCC(c4cc5c(c(=O)[nH]4)CCC(=O)N5C)C3)CC2)cn1 (racemic) [Compound 325rac] | – | – | – | – | – | +++ (+++ indicate a value of at least 100) | – | 1000 to 10000 | – | < 10 | < 10 | – |
| CCc1ccc(C2CCN(C3CCN(c4ccc(C(=O)NCCOC)nc4)CC3)C2)[nH]c1=O (racemic) [Compound 160rac] | 1000 to 10000 | – | – | – | – | +++ (+++ indicate a value of at least 100) | < 10 | – | – | – | – | < 10 |
| CNC(=O)c1ccc(N2CCC(C(=O)N3CCC(c4ncc(C(F)(F)F)c(=O)[nH]4)CC3)CC2)cn1 [Compound 59] | > 10000 | – | – | – | 100 to 1000 | − (− indicates a value of less than 10) | 1000 to 10000 | – | – | – | – | – |
| CCc1cc(C)c(C2CCN(C3CCN(c4ccc(C(=O)NC)nc4)CC3)C2)[nH]c1=O (single isomer, unassigned) [Compound 363b] | – | – | – | – | – | +++ (+++ indicate a value of at least 100) | – | 1000 to 10000 | – | < 10 | < 10 | – |
| CNC(=O)c1ccc(N2CCC(N3CCC(c4cc5cccc(C(F)(F)F)c5c(=O)[nH]4)C3)CC2)cn1 (racemic) [Compound 135rac] | 10 to 100 | – | – | – | – | + (+ indicates a value of 10 to less than 50) | < 10 | – | – | – | – | < 10 |
| CC(=O)Nc1ccc(N2CCC(N3CCC(c4nc5ccccc5c(=O)[nH]4)C3)CC2)cn1 (single isomer, unassigned) [Compound 220b] | – | – | – | – | – | + (+ indicates a value of 10 to less than 50) | – | 1000 to 10000 | – | 10 to 100 | 10 to 100 | – |
| O=C(NCC(F)F)c1ccc(N2CCC(N3CCC(c4cc5ccc(F)cc5c(=O)[nH]4)C3)CC2)c(F)n1 (single isomer, unassigned) [Compound 399a] | – | – | – | – | – | +++ (+++ indicate a value of at least 100) | – | 100 to 1000 | – | < 10 | < 10 | – |
| CNC(=O)c1ccc(N2CCC(CN3CCCC(c4nc5ccccc5c(=O)[nH]4)C3)CC2)cn1 (single isomer, unassigned) [Compound 9b] | 100 to 1000 | – | – | – | – | − (− indicates a value of less than 10) | 10 to 100 | – | – | – | – | 10 to 100 |
| CNC(=O)c1ccc(N2CCC(N3CCC(c4cc5c(F)cccc5c(=O)[nH]4)C3)CC2)cn1 (single isomer, unassigned) [Compound 172a] | 1000 to 10000 | – | – | – | – | +++ (+++ indicate a value of at least 100) | < 10 | – | – | – | – | < 10 |
| CCc1cnc(C2CCN(C3CCC(F)(F)CC3)C2)[nH]c1=O (single isomer, unassigned) [Compound 38b] | > 10000 | – | – | – | – | − (− indicates a value of less than 10) | 1000 to 10000 | – | – | – | – | 1000 to 10000 |
| O=C(NCC(F)(F)F)c1ccc(N2CCC(N3CCCC(c4nc5ccccc5c(=O)[nH]4)C3)CC2)cn1 (single isomer, unassigned) [Compound 115a] | 1000 to 10000 | – | – | – | – | + (+ indicates a value of 10 to less than 50) | 100 to 1000 | – | – | – | – | 100 to 1000 |
| CNC(=O)c1ccc(N2CCC(N3CCC(c4cc5c(c(=O)[nH]4)CCCC5)C3)CC2)cn1 (racemic) [Compound 336rac] | – | – | – | – | – | ++ (++ indicates a value of 50 to less than 100) | – | 10 to 100 | – | < 10 | < 10 | – |
| CNC(=O)c1ccc(N2CCC(N3CCC(c4ccc(CC(F)(F)F)c(=O)[nH]4)C3)CC2)cn1 (racemic) [Compound 243rac] | – | – | – | – | – | ++ (++ indicates a value of 50 to less than 100) | – | > 10000 | – | 10 to 100 | 10 to 100 | – |
| CNC(=O)c1ccc(N2CCC(N3CCC(c4cc5[nH]nc(C(F)(F)F)c5c(=O)[nH]4)C3)CC2)cn1 (single isomer, unassigned) [Compound 194a, N-methyl-5-(4-(3-(4-oxo-3-(trifluoromethyl)-4,5-dihydro-1H-pyrazolo[4,3-c]pyridin-6-yl)pyrrolidin-1-yl)piperidin-1-yl)picolinamide] | 1000 to 10000 | – | – | – | 10 to 100 | + (+ indicates a value of 10 to less than 50) | 10 to 100 | – | – | – | – | – |
| N#Cc1ccc(N2CCC(N3CCC(c4cc5cccc(F)c5c(=O)[nH]4)C3)CC2)c(Cl)c1 (single isomer, unassigned) [Compound 378a] | – | – | – | – | – | +++ (+++ indicate a value of at least 100) | – | 100 to 1000 | – | < 10 | < 10 | – |
